Experiment: Isoelectric point (pI) of the GLP-1 peptide
Format: physicochemical
Conditions: pH value where the peptide carries no net charge
Excerpt: Exemplary non-volatile bases are sodium hydroxide, potassium hydroxide, buffers selected from e.g. a phosphate buffer, a TRIS buffer, an acetate buffer. The ‘pI’ as used herein refers to the isoelectric point of the GLP-1 peptide, i.e. the pH value where the peptide carried no net charge.

| Substance | pI |
| --- | --- |
| Nε27-[2-[2-[2-[[2-[2-[2-[[(4S)-4-carboxy-4-[10-(4-carboxyphenoxy)decanoylamino]butanoyl]amino]ethoxy]ethoxy]acetyl]amino]ethoxy]ethoxy]acetyl], Nε36-[2-[2-[2-[[2-[2-[2-[[(4S)-4-carboxy-4-[10-(4-carboxyphenoxy)decanoylamino]butanoyl]amino]ethoxy]ethoxy]acetyl]amino]ethoxy]ethoxy]a cetyl]-[Aib8,Glu22,Arg26,Lys27,Glu30,Arg34,Lys36]-GLP-1-(7-37)-peptidyl-Glu-Gly [Compound A] | about 4.6 |
| N^6,26-{18-[N-(17-carboxyheptadecanoyl)-L-γ-glutamyl]-10-oxo-3,6,12,15-tetraoxa-9,18-diazaoctadecanoyl}-[8-(2-amino-2-propanoic acid), 34-L-arginine]human glucagon-like peptide 1(7-37) [semaglutide] | about 5.4 |

— patent US20220409701A1, “PROCESS FOR PRODUCING A TABLET COMPRISING GLP-1 PEPTIDES” (Novo Nordisk A/S, priority 2019, published 2022)
